Results: PMC9027532, “Preclinical Pharmacokinetic Studies of a Novel Diuretic Inhibiting Urea Transporters” (Molecules, 2022)
Where two headings read alike, the source gives them in different places.

What was measured:
UT-B = test system: UT-B; design: method as in PMID 34601246; details: rat; read-out: inhibitory effect on UT-B; cited from earlier work
[1] = Stability of 25a in rat plasma, urine, feces and bile under storage conditions; type: in vitro ADME
Method: The stability profiles of 25a in the given matrices stored under different conditions (4 °C for 24 h, 25 °C for 4 h, three freeze–thaw cycles, and −80 °C for 30 days) are shown in Table 5.
The accuracy and precision were evaluated by calculating the intraday and interday RE and CV of the QC samples. The RE should be within ±15% of the theoretical concentrations (3, 100, and 800 ng/mL). The CV values should be no more than 15%. For the LLOQ, the cutoff values of RE and CV were 100% ± 20% and <20%. The stability of 25a in the biological matrices (rat plasma, urine, fecal homogenate, and bile) was assessed at 3, 100, and 800 ng/mL (n = 6) under different storage conditions, which included storage at room temperature for 4 h, storage at 4 °C for 24 h, three freeze–thaw cycles, and storage at −80 °C for 30 days.

[2] = Tissue distribution study in rats; type: in vivo, SD rats; details: male, Sprague-Dawley, rat, single oral dose 100 mg/kg; for Kp: read-out: Kp (tissue plasma distribution coefficient)
Text: Compound 25a was extensively distributed in most tissues of rats, and the drug concentration was high in organs with abundant hemoperfusions, such as the kidney, heart, lung, and spleen, among which the drug concentration was the highest in the kidney, with a tissue plasma distribution coefficient Kp = 1.67. The high kidney distribution is a good characteristic for diuretics targeting UTs, because the UTs in the renal inner medullary collecting duct (UT-A1/3) and renal vasa recta microvessels (UT-B) play vital roles in urea recycling and urine concentration. […] Thus, the potential risk of 25a for the central nervous system and male reproductive system is probably low.
Twenty-four SD rats were randomly divided into six groups and received a single oral dose of 25a at 100 mg/kg. Blood and tissues samples (i.e., brain, heart, lungs, liver, spleen, kidneys, muscle, skin, fat, testes, and leg bones) were collected at 0.25 h, 0.5 h, 2 h, 6 h, 12 h, and 24 h after dosing. The tissue samples were rinsed with cold saline and dried on filter papers, weighed, and homogenized with fivefold volumes of ultrapure water using a homogenizer (T10, IKA, Staufen, Germany) on ice. The right shin bone of the rat was crushed and soaked in methanol for 12 h at 4 °C. Tissue homogenate or bone soak solution was prepared and analyzed using the above method. Samples were stored at −80 °C until analysis.

[3] = plasma (tissue distribution study)

Structure (SMILES): CC(=O)Nc1ccc(NC(=O)c2ccc(C(C)=O)o2)cc1 [Compound 25a, N-(4-acetamidophenyl)-5-acetylfuran-2-carboxamide]
- Stability RE ([1]; rat bile, HQC 800 ng/mL, 4 °C for 24 h): −7.1%
- Stability RE ([1]; rat bile, HQC 800 ng/mL, 25 °C for 4 h): −7.8%
- Stability RE ([1]; rat bile, HQC 800 ng/mL, three freeze–thaw cycles): −12.2%
- Stability RE ([1]; rat bile, HQC 800 ng/mL, −80 °C for 30 days): −7.1%
- Stability RE ([1]; rat bile, LQC 3 ng/mL, 4 °C for 24 h): −14.7%
- Stability RE ([1]; rat bile, LQC 3 ng/mL, 25 °C for 4 h): −14.9%
- Stability RE ([1]; rat bile, LQC 3 ng/mL, three freeze–thaw cycles): −5.8%
- Stability RE ([1]; rat bile, LQC 3 ng/mL, −80 °C for 30 days): −2.1%
- Stability RE ([1]; rat bile, MQC 100 ng/mL, 4 °C for 24 h): −3.9%
- Stability RE ([1]; rat bile, MQC 100 ng/mL, 25 °C for 4 h): −5.1%
- Stability RE ([1]; rat bile, MQC 100 ng/mL, three freeze–thaw cycles): −5.2%
- Stability RE ([1]; rat bile, MQC 100 ng/mL, −80 °C for 30 days): −3.9%
- Stability RE ([1]; rat feces, HQC 800 ng/mL, 4 °C for 24 h): −5.3%
- Stability RE ([1]; rat feces, HQC 800 ng/mL, 25 °C for 4 h): −2.4%
- Stability RE ([1]; rat feces, HQC 800 ng/mL, three freeze–thaw cycles): −9.1%
- Stability RE ([1]; rat feces, HQC 800 ng/mL, −80 °C for 30 days): −5.3%
- Stability RE ([1]; rat feces, LQC 3 ng/mL, 4 °C for 24 h): 3.9%
- Stability RE ([1]; rat feces, LQC 3 ng/mL, 25 °C for 4 h): −5.2%
- Stability RE ([1]; rat feces, LQC 3 ng/mL, three freeze–thaw cycles): −5.2%
- Stability RE ([1]; rat feces, LQC 3 ng/mL, −80 °C for 30 days): 1.2%
- Stability RE ([1]; rat feces, MQC 100 ng/mL, 25 °C for 4 h): 1.3%
- Stability RE ([1]; rat feces, MQC 100 ng/mL, three freeze–thaw cycles): −3.2%
- Stability RE ([1]; rat plasma, HQC 800 ng/mL, 4 °C for 24 h): −4.5%
- Stability RE ([1]; rat plasma, HQC 800 ng/mL, 25 °C for 4 h): −3.1%
- Stability RE ([1]; rat plasma, HQC 800 ng/mL, three freeze–thaw cycles): −7.6%
- Stability RE ([1]; rat plasma, HQC 800 ng/mL, −80 °C for 30 days): −4.5%
- Stability RE ([1]; rat plasma, LQC 3 ng/mL, 4 °C for 24 h): 2.8%
- Stability RE ([1]; rat plasma, LQC 3 ng/mL, 25 °C for 4 h): −4.9%
- Stability RE ([1]; rat plasma, LQC 3 ng/mL, three freeze–thaw cycles): −3.6%
- Stability RE ([1]; rat plasma, LQC 3 ng/mL, −80 °C for 30 days): 1.1%
- Stability RE ([1]; rat plasma, MQC 100 ng/mL, 4 °C for 24 h): 3.7%
- Stability RE ([1]; rat plasma, MQC 100 ng/mL, 25 °C for 4 h): −2.5%
- Stability RE ([1]; rat plasma, MQC 100 ng/mL, three freeze–thaw cycles): −4.0%
- Stability RE ([1]; rat plasma, MQC 100 ng/mL, −80 °C for 30 days): 3.7%
- Stability RE ([1]; rat urine, HQC 800 ng/mL, 4 °C for 24 h): −2.3%
- Stability RE ([1]; rat urine, HQC 800 ng/mL, 25 °C for 4 h): −2.3%
- Stability RE ([1]; rat urine, HQC 800 ng/mL, three freeze–thaw cycles): −1.5%
- Stability RE ([1]; rat urine, HQC 800 ng/mL, −80 °C for 30 days): −2.3%
- Stability RE ([1]; rat urine, LQC 3 ng/mL, 4 °C for 24 h): −8.3%
- Stability RE ([1]; rat urine, LQC 3 ng/mL, 25 °C for 4 h): 3.2%
- Stability RE ([1]; rat urine, LQC 3 ng/mL, three freeze–thaw cycles): 5.8%
- Stability RE ([1]; rat urine, LQC 3 ng/mL, −80 °C for 30 days): 6.2%
- Stability RE ([1]; rat urine, MQC 100 ng/mL, 4 °C for 24 h): 2.5%
- Stability RE ([1]; rat urine, MQC 100 ng/mL, 25 °C for 4 h): 4.3%
- Stability RE ([1]; rat urine, MQC 100 ng/mL, three freeze–thaw cycles): −5.2%
- Stability RE ([1]; rat urine, MQC 100 ng/mL, −80 °C for 30 days): 2.5%
- AUC(0-t) ([2]; bone): 2680 ± 660 ng·h/mL
- Cmax ([2]; bone): 413 ± 150 ng/mL
- Tmax ([2]; bone): 1.1 ± 0.9 h
- half-life ([2]; bone): 3.7 ± 0.5 h
- Kp ([2]; bone): 0.4
- AUC(0-t) ([2]; brain): 1390 ± 602 ng·h/mL
- Cmax ([2]; brain): 820 ± 769 ng/mL
- Tmax ([2]; brain): 0.9 ± 0.6 h
- half-life ([2]; brain): 6.1 ± 2.8 h
- Kp ([2]; brain): 0.27
- AUC(0-t) ([2]; fat): 1570 ± 650 ng·h/mL
- Cmax ([2]; fat): 333 ± 238 ng/mL
- Tmax ([2]; fat): 1.3 ± 0.8 h
- half-life ([2]; fat): 6.6 ± 4.2 h
- Kp ([2]; fat): 0.31
- AUC(0-t) ([2]; heart): 4160 ± 1010 ng·h/mL
- Cmax ([2]; heart): 631 ± 64.8 ng/mL
- Tmax ([2]; heart): 0.8 ± 0.7 h
- half-life ([2]; heart): 3.5 ± 0.6 h
- Kp ([2]; heart): 0.8
- AUC(0-t) ([2]; kidney): 8670 ± 1510 ng·h/mL
- Cmax ([2]; kidney): 1480 ± 473 ng/mL
- Tmax ([2]; kidney): 0.4 ± 0.1 h
- half-life ([2]; kidney): 4.2 ± 0.8 h
- Kp ([2]; kidney): 1.67
- AUC(0-t) ([2]; liver): 1650 ± 1000 ng·h/mL
- Cmax ([2]; liver): 183 ± 144 ng/mL
- Tmax ([2]; liver): 3.6 ± 2.5 h
- half-life ([2]; liver): 6.3 ± 3.4 h
- Kp ([2]; liver): 0.22
- AUC(0-t) ([2]; lung): 3720 ± 880 ng·h/mL
- Cmax ([2]; lung): 1130 ± 1010 ng/mL
- Tmax ([2]; lung): 0.4 ± 0.1 h
- half-life ([2]; lung): 3.6 ± 0.7 h
- Kp ([2]; lung): 0.72
- AUC(0-t) ([2]; muscle): 4000 ± 790 ng·h/mL
- Cmax ([2]; muscle): 728 ± 216 ng/mL
- Tmax ([2]; muscle): 0.8 ± 0.7 h
- half-life ([2]; muscle): 3.2 ± 0.4 h
- Kp ([2]; muscle): 0.79
- AUC(0-t) [2, 3]: 5200 ± 1590 ng·h/mL
- Cmax [2, 3]: 1120 ± 132 ng/mL
- Tmax [2, 3]: 0.3 h
- half-life [2, 3]: 5.7 ± 4.8 h
- Kp [2, 3]: 1
- AUC(0-t) ([2]; skin): 4830 ± 1080 ng·h/mL
- Cmax ([2]; skin): 701 ± 124 ng/mL
- Tmax ([2]; skin): 2.6 ± 2.1 h
- half-life ([2]; skin): 3.6 ± 0.5 h
- Kp ([2]; skin): 0.93
- AUC(0-t) ([2]; spleen): 4270 ± 2630 ng·h/mL
- Cmax ([2]; spleen): 934 ± 793 ng/mL
- Tmax ([2]; spleen): 0.9 ± 0.6 h
- half-life ([2]; spleen): 4.5 ± 0.8 h
- Kp ([2]; spleen): 0.82
- AUC(0-t) ([2]; testis): 338 ± 144 ng·h/mL
- Cmax ([2]; testis): 50.6 ± 26.4 ng/mL
- Tmax ([2]; testis): 6 h
- Kp ([2]; testis): 0.06
